Laboratory results reported in US11566057B2, “Long-acting co-agonists of the glucagon and GLP-1 receptors” (Merck Sharp & Dohme Corp., priority 2017, dated 2023).
pEC50: −log10 of the molar value. Numbered stars: 1 amine (or outer) side, 2 acyl side, 3 side chain; on linkers, the order of the positions; unused ones are H or OH. Square brackets hold non-standard residues; d marks the D form. Side chains are listed from the residue outwards. Peptide text beside a SMILES is read from it. * marks the point of attachment. C20 diacid = O=C(O)CCCCCCCCCCCCCCCCCCC(=O)*; Phe(4-CH2NH2) = NCc1ccc(C[C@H](N)C(=O)O)cc1; C18 diacid = O=C(O)CCCCCCCCCCCCCCCCC(=O)*; γGlu = O=C(O)[C@H](CCC(=O)[*:2])N[*:1]; Met(O2) = CS(=O)(=O)CC[C@H](N)C(=O)O; AEEA = NCCOCCOCC(=O)O; Aib = CC(C)(N)C(=O)O

Legend:
human GCGR = biological target: T1, human GCGR (Homo sapiens, UniProt P47871); test: cAMP activity assay at the Glucagon receptor (GCGR); assay type: cell-based; conditions: for hGCGR/hGLP1R (hTone): ratio of GCGR EC50 to GLP1R EC50; for pEC50: summary statement: EC50 at each of the glucagon and GLP-1 receptors, read-out: EC50 at the glucagon receptor
T1 construct: expressed in transfected cells; growth medium holds Blasticidin and Hygromycin
T1 sequence (P47871 26-477): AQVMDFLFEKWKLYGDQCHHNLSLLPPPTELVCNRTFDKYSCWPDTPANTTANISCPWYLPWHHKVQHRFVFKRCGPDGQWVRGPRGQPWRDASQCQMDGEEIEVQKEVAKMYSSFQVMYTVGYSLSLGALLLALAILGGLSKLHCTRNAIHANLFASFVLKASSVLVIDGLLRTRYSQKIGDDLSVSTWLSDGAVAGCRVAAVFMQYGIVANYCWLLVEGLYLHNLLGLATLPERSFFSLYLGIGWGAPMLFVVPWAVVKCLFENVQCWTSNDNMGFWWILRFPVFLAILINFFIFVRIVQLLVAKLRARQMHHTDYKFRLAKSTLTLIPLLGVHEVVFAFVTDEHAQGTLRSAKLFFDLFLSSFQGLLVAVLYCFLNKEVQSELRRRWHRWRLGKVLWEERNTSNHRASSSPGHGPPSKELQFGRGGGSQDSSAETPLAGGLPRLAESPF
Outline: (§1)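 Peptides serially diluted from DMSO (10 points) and added to frozen-stock cells bearing human GLP1R (10,000 cells/well) or GCGR (30,000 cells/well), 1 h at RT, dark. EC50 by four-parameter logistic fit of HitHunter cAMPXS luminescence, read following overnight RT incubation.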

human GLP1R = biological target: T2, human GLP1R (Homo sapiens, UniProt P43220); test: cAMP activity assay at the GLP-1 receptor (GLP1R); assay type: cell-based; conditions: summary statement: EC50 at each of the glucagon and GLP-1 receptors; read-out: EC50 at the GLP-1 receptor
T2 construct: expressed in transfected cells; growth medium holds Blasticidin and Hygromycin
T2 sequence (P43220 24-463): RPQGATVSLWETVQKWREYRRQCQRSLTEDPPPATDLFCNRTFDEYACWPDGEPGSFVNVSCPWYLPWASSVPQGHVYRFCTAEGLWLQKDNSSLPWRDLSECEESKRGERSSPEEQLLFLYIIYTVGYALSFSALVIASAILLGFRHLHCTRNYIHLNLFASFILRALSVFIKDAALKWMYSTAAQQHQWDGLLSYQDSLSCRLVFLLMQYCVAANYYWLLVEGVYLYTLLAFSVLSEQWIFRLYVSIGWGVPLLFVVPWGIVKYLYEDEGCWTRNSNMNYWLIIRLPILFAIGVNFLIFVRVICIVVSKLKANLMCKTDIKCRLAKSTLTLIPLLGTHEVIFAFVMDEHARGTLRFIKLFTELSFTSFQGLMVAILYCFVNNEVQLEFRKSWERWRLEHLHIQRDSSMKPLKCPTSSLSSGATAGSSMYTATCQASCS
Outline: as §1

SMILES | hGCGR/hGLP1R (hTone) (human GCGR) | pEC50 (human GCGR) | pEC50 (human GLP1R)
CC(C)C[C@H](NC(=O)[C@H](C)NC(=O)[C@H](CC(=O)O)NC(=O)[C@H](CC(C)C)NC(=O)[C@H](Cc1ccc(O)cc1)NC(=O)[C@H](CCCCN)NC(=O)[C@H](CO)NC(=O)[C@H](Cc1ccc(O)cc1)NC(=O)[C@H](CC(=O)O)NC(=O)[C@H](CO)NC(=O)[C@@H](NC(=O)[C@H](Cc1ccccc1)NC(=O)[C@@H](NC(=O)CNC(=O)[C@H](CCC(N)=O)NC(=O)C(C)(C)NC(=O)[C@@H](N)Cc1c[nH]cn1)[C@@H](C)O)[C@@H](C)O)C(=O)N[C@@H](C)C(=O)N[C@@H](C)C(=O)N[C@@H](CCCCNC(=O)COCCOCCNC(=O)COCCOCCNC(=O)CC[C@H](NC(=O)CCCCCCCCCCCCCCCCC(=O)O)C(=O)O)C(=O)N[C@@H](CC(=O)O)C(=O)N[C@@H](Cc1ccccc1)C(=O)N[C@H](C(=O)N[C@@H](CCC(N)=O)C(=O)N[C@@H](Cc1c[nH]c2ccccc12)C(=O)N[C@@H](CC(C)C)C(=O)N[C@@H](CCS(C)(=O)=O)C(=O)N[C@@H](CC(=O)O)C(=O)N[C@H](C(N)=O)[C@@H](C)O)C(C)C [TP599] (H-H[Aib]QGTFTSDYSKYLDALAAK([AEEA-AEEA-γGlu-C18 diacid])DFVQWL[Met(O2)]DT-NH2; N-terminus assumed) | 1.6 | > 8.30 | > 8.30
CC(C)C[C@H](NC(=O)[C@H](Cc1ccc(O)cc1)NC(=O)[C@H](CCCCN)NC(=O)[C@H](CO)NC(=O)[C@H](Cc1ccc(O)cc1)NC(=O)[C@H](CC(=O)O)NC(=O)[C@H](CO)NC(=O)[C@@H](NC(=O)[C@H](Cc1ccccc1)NC(=O)[C@@H](NC(=O)CNC(=O)[C@H](CCC(N)=O)NC(=O)C(C)(C)NC(=O)[C@@H](N)Cc1c[nH]cn1)[C@@H](C)O)[C@@H](C)O)C(=O)N[C@@H](CC(=O)O)C(=O)N[C@@H](C)C(=O)N[C@@H](CCCNC(=N)N)C(=O)N[C@@H](C)C(=O)N[C@@H](C)C(=O)N[C@@H](CCCCNC(=O)COCCOCCNC(=O)COCCOCCNC(=O)CC[C@H](NC(=O)CCCCCCCCCCCCCCCCC(=O)O)C(=O)O)C(=O)N[C@@H](CC(=O)O)C(=O)N[C@@H](Cc1ccccc1)C(=O)N[C@H](C(=O)N[C@@H](CCC(N)=O)C(=O)N[C@@H](Cc1c[nH]c2ccccc12)C(=O)N[C@@H](CC(C)C)C(=O)N[C@@H](CCS(C)(=O)=O)C(=O)N[C@@H](CCC(N)=O)C(=O)N[C@H](C(N)=O)[C@@H](C)O)C(C)C [TP600] (H-H[Aib]QGTFTSDYSKYLDARAAK([AEEA-AEEA-γGlu-C18 diacid])DFVQWL[Met(O2)]QT-NH2; N-terminus assumed) | 3.1 | > 8.30 | > 8.30
CC(C)C[C@H](NC(=O)[C@H](Cc1ccc(O)cc1)NC(=O)[C@H](CCCCN)NC(=O)[C@H](CO)NC(=O)[C@H](Cc1ccc(O)cc1)NC(=O)[C@H](CC(=O)O)NC(=O)[C@H](CO)NC(=O)[C@@H](NC(=O)[C@H](Cc1ccccc1)NC(=O)[C@@H](NC(=O)CNC(=O)[C@H](CCC(N)=O)NC(=O)C(C)(C)NC(=O)[C@@H](N)Cc1c[nH]cn1)[C@@H](C)O)[C@@H](C)O)C(=O)N[C@@H](CC(=O)O)C(=O)N[C@@H](C)C(=O)N[C@@H](CCCNC(=N)N)C(=O)N[C@@H](C)C(=O)N[C@@H](C)C(=O)N[C@@H](CCC(N)=O)C(=O)N[C@@H](CC(=O)O)C(=O)N[C@@H](Cc1ccccc1)C(=O)N[C@H](C(=O)N[C@@H](CCC(N)=O)C(=O)N[C@@H](Cc1c[nH]c2ccccc12)C(=O)N[C@@H](CC(C)C)C(=O)N[C@@H](CCS(C)(=O)=O)C(=O)N[C@@H](CCCCNC(=O)COCCOCCNC(=O)COCCOCCNC(=O)CC[C@H](NC(=O)CCCCCCCCCCCCCCCCC(=O)O)C(=O)O)C(=O)N[C@H](C(N)=O)[C@@H](C)O)C(C)C [TP602] (H-H[Aib]QGTFTSDYSKYLDARAAQDFVQWL[Met(O2)]K([AEEA-AEEA-γGlu-C18 diacid])T-NH2) | 6.3 | > 8.30 | > 8.30
CC(C)C[C@H](NC(=O)[C@H](Cc1ccc(O)cc1)NC(=O)[C@H](CCCCN)NC(=O)[C@H](CO)NC(=O)[C@H](Cc1ccc(O)cc1)NC(=O)[C@H](CC(=O)O)NC(=O)[C@H](CO)NC(=O)[C@@H](NC(=O)[C@H](Cc1ccccc1)NC(=O)[C@@H](NC(=O)CNC(=O)[C@H](CCC(N)=O)NC(=O)C(C)(C)NC(=O)[C@@H](N)Cc1c[nH]cn1)[C@@H](C)O)[C@@H](C)O)C(=O)N[C@@H](CC(=O)O)C(=O)N[C@@H](C)C(=O)N[C@@H](CCCNC(=N)N)C(=O)N[C@@H](C)C(=O)N[C@@H](C)C(=O)N[C@@H](CCC(N)=O)C(=O)N[C@@H](CC(=O)O)C(=O)N[C@@H](Cc1ccccc1)C(=O)N[C@H](C(=O)N[C@@H](CCC(N)=O)C(=O)N[C@@H](Cc1c[nH]c2ccccc12)C(=O)N[C@@H](CC(C)C)C(=O)N[C@@H](CCS(C)(=O)=O)C(=O)N[C@@H](CCCCNC(=O)COCCOCCNC(=O)COCCOCCNC(=O)CC[C@H](NC(=O)CCCCCCCCCCCCCCCCCCC(=O)O)C(=O)O)C(=O)N[C@H](C(N)=O)[C@@H](C)O)C(C)C [TP603] (H-H[Aib]QGTFTSDYSKYLDARAAQDFVQWL[Met(O2)]K([AEEA-AEEA-γGlu-C20 diacid])T-NH2; N-terminus assumed) | 1.6 | > 8.30 | > 8.30
CC(C)C[C@H](NC(=O)[C@H](Cc1ccc(O)cc1)NC(=O)[C@H](CCCCN)NC(=O)[C@H](CO)NC(=O)[C@H](Cc1ccc(O)cc1)NC(=O)[C@H](CC(=O)O)NC(=O)[C@H](CO)NC(=O)[C@@H](NC(=O)[C@H](Cc1ccccc1)NC(=O)[C@@H](NC(=O)CNC(=O)[C@H](CCC(N)=O)NC(=O)C(C)(C)NC(=O)[C@@H](N)Cc1c[nH]cn1)[C@@H](C)O)[C@@H](C)O)C(=O)N[C@@H](CC(=O)O)C(=O)N[C@@H](C)C(=O)N[C@@H](CCCNC(=N)N)C(=O)N[C@@H](C)C(=O)N[C@@H](C)C(=O)N[C@@H](CCC(N)=O)C(=O)N[C@@H](CC(=O)O)C(=O)N[C@@H](Cc1ccccc1)C(=O)N[C@H](C(=O)N[C@@H](CCC(N)=O)C(=O)N[C@@H](Cc1c[nH]c2ccccc12)C(=O)N[C@@H](CC(C)C)C(=O)N[C@@H](CCS(C)(=O)=O)C(=O)N[C@@H](Cc1ccc(CNC(=O)COCCOCCNC(=O)COCCOCCNC(=O)CC[C@H](NC(=O)CCCCCCCCCCCCCCCCCCC(=O)O)C(=O)O)cc1)C(=O)N[C@H](C(N)=O)[C@@H](C)O)C(C)C [TP605] (H-H[Aib]QGTFTSDYSKYLDARAAQDFVQWL[Met(O2)][Phe(4-CH2NH2)]([AEEA-AEEA-γGlu-C20 diacid])T-NH2) | – | > 8.30 | > 8.30
